Test results taken from patent publication US11891397B1, “Pyrido[4′,3′:4,5]pyrrolo[3,2-c][1,7]naphthyridin-10-one compounds as CK2 inhibitors” (KING FAISAL UNIVERSITY, priority 2023, dated 2024).

Assays:
PC3 (prostate) = assay: In vitro cytotoxic activity MTT assay, PC3; format: cell-based; conditions: Homo sapiens, 96 hours exposure, read-out: IC50, 50% inhibition of cell proliferation
Procedure: (§1) Compounds 1-16 were screened for their in vitro cytotoxic activity utilizing a 3-(4,5-dimethyl-thiazol-2-yl)-2,5-diphenyltetrazolium bromide (MTT) assay against selected cancer human cell lines consisting of PC3 (prostate), HCT116 (colon), A375 (melanoma), H1299 (lung), MIAPaCa-2 (pancreas), HL60 (leukemia), MCF7 (breast), MDA-MB-231 (breast) (T. Mosmann, J. Immunol. Meth., 1983, 65, 55-63). The cells were cultured at 37° C. in RMPI1640 medium supplemented with 10% fetal bovine serum, 50 IU/mL penicillin, and 50 μg/mL streptomycin in a 5% CO2 incubator. All cells were sub-cultured 3 times/week by trypsinisation. Viable cells were seeded and allowed to adhere for 12 h before a test drug was added in 96-well plates at an initial density of 1.0×10^5 cells/mL. Tumour cell lines were separately exposed to various concentrations of the tested compounds followed by incubation at a temperature of 37° C. during 96 h inside a medium of fresh RMPI 1640. Cells were subsequently incubated at 37° C. using MTT at 0.5 mg/mL during 4 h. After removal of supernatant, formazan crystals were dissolved in isopropanol and the optical density was measured at 570 nm. CX-4945 was used as a positive control.

HCT116 (colon) = assay: In vitro cytotoxic activity MTT assay, HCT116; format: cell-based; conditions: Homo sapiens, HCT-116, 96 hours exposure, read-out: IC50, 50% inhibition of cell proliferation
Procedure: as §1

A375 (melanoma) = assay: In vitro cytotoxic activity MTT assay, A375; format: cell-based; conditions: Homo sapiens, A-375, 96 hours exposure, read-out: IC50, 50% inhibition of cell proliferation
Procedure: as §1

H1299 (lung) = assay: In vitro cytotoxic activity MTT assay, H1299; format: cell-based; conditions: Homo sapiens, NCI-H1299, 96 hours exposure, read-out: IC50, 50% inhibition of cell proliferation
Procedure: as §1

MIAPaCa-2 (pancreas) = assay: In vitro cytotoxic activity MTT assay, MIAPaCa-2; format: cell-based; conditions: Homo sapiens, MIA PaCa-2, 96 hours exposure, read-out: IC50, 50% inhibition of cell proliferation
Procedure: as §1

HL60 (leukemia) = assay: In vitro cytotoxic activity MTT assay, HL60; format: cell-based; conditions: Homo sapiens, HL-60, 96 hours exposure, read-out: IC50, 50% inhibition of cell proliferation
Procedure: as §1

MCF7 (breast) = assay: In vitro cytotoxic activity MTT assay, MCF7; format: cell-based; conditions: Homo sapiens, 96 hours exposure, read-out: IC50, 50% inhibition of cell proliferation
Procedure: as §1

MDA-MB-231 (breast) = assay: In vitro cytotoxic activity MTT assay, MDA-MB-231; format: cell-based; conditions: Homo sapiens, 96 hours exposure, read-out: IC50, 50% inhibition of cell proliferation
Procedure: as §1

recombinant human CK2 = target: T1, recombinant human CK2 (Homo sapiens, UniProt P68400); assay: CK2 Kinase Assay (33P-ATP filter plate); format: biochemical; conditions: final ATP concentration 15 μM, 10 min at 30° C; read-out: protein kinase CK2 IC50
T1 construct: purchased Millipore
Procedure: CK2 Kinase Assay was conducted using the protocol as described in Pierre F. et al; J. Med. Chem. 2011, 54, 635-654. The tested compounds in aqueous solution were added at a volume of 10 μL to a reaction mixture comprising 10 μL of assay dilution buffer (ADB; 20 mM MOPS, pH 7.2, 25 mM β-glycerol phosphate, 5 mM EGTA, 1 mM sodium orthovanadate, and 1 mM dithiothreitol), 10 μL of substrate peptide (RRRDDDSDDD, dissolved in ADB at a concentration of 1 mM), 10 μL of recombinant human CK2 (RROP-holoenzyme, 25 ng dissolved in ADB; Millipore). Reactions were initiated by the addition of 10 μL of ATP solution (90% 75 mMMgCl2, 75 μM ATP (final ATP concentration:15 μM) dissolved in ADB; 10% [γ-33P] ATP (stock 1 mCi/100 μL; 3000 Ci/mmol (Perkin-Elmer) and maintained for 10 min at 30° C. The reactions were quenched with 100 μL of 0.75% phosphoric acid and then transferred to and filtered through a phosphor cellulose filter plate (Millipore). After washing each well five times with 0.75% phosphoric acid, the plate was dried under vacuum for 5 min and, following the addition of 15 μL of scintillation fluid to each well, the residual radioactivity was measured using a Wallac luminescence counter. The IC50 values were derived from eight concentrations of test inhibitors.

T1 sequence (P68400 whole entry): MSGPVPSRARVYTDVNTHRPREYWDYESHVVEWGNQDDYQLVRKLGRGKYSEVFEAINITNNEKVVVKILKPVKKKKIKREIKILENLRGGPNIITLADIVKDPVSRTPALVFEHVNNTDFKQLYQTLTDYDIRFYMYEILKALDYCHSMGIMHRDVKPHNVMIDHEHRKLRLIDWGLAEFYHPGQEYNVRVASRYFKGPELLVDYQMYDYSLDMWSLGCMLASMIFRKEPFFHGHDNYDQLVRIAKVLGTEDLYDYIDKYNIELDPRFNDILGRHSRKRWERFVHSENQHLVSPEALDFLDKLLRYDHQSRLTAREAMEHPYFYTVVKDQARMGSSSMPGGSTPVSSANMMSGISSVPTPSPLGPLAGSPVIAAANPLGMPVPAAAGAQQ
T1 sequence (P67870 whole entry partner): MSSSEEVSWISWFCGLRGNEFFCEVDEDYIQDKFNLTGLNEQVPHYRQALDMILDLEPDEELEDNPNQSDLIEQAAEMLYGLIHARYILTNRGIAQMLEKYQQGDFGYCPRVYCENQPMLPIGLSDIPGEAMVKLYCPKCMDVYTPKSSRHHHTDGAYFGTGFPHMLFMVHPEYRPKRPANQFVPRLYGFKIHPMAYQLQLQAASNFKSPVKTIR

IC50 (recombinant human CK2): 45 nM
SMILES: O=c1[nH]ccc2c1[nH]c1c3ccncc3nc(Nc3cccc(Cl)c3)c21 [Compound 1, 6-((3-chlorophenyl)amino)-9,11-dihydro-10H-pyrido[4′,3′:4,5]pyrrolo[3,2-c][1,7]naphthyridin-10-one]
IC50 (PC3 (prostate)): 1800 nM
IC50 (HCT116 (colon)): 2100 nM
IC50 (A375 (melanoma)): 3900 nM
IC50 (H1299 (lung)): 2700 nM
IC50 (MIAPaCa-2 (pancreas)): 1200 nM
IC50 (HL60 (leukemia)): 4600 nM
IC50 (MCF7 (breast)): 5400 nM
IC50 (MDA-MB-231 (breast)): 4000 nM
